From patent US9790173B2, “Alpha-7 nicotinic acetylcholine receptor modulators and uses thereof-I” (MERCK SHARP & DOHME CORP., priority 2012, dated 2017)

Target: T1, rat α7 nAChRs (Rattus norvegicus, UniProt Q05941)
T1 construct: expressed in transfected cells; host or cells: GH4C1 cells (rat pituitary line) stably expressing α7 nAChR
Experiment: Automated planar patch clamp (Patchliner) electrophysiology, α7 nAChR PAM activity
Format: cell-based
Set-up: key to Type I or Type II: I: Type 1 predominately affects the peak current; Type II modulators affect the peak current and also delay the desensitization of the receptor
Conditions: for Type I or Type II: modulator type based on the electrophysiology trace; for activation at 3 µM: GH4-C1, 3 μM compound in the presence of acetylcholine, GH4C1 cells expressing rat α7 nAChRs, peak current, read-out: Peak potentiation at 3 μM compound
Description: Tested compounds were prepared by serial dilutions of 10 mM stock solution in DMSO to concentrations of the compound 1000 times higher than its final concentration. The DMSO stock solutions were then diluted 1:100 in the recording buffer bringing DMSO concentration to 1%. These intermediate solutions were further diluted 10 times with buffer to obtain final concentrations and lower DMSO concentration to 0.1%. […]
Compounds of the invention may be evaluated by electrophysiology using a Patchliner® (Nanion Technologies GmbH, Germany), an automated planar patch-clamp platform of medium throughput was used as a first step in electrophysiological assessment of α7 nAChR positive allosteric modulators (PAMs).
Briefly, intracellular (KCl—50 mM, NaCl—10 mM, KF—60 mM, EGTA—20 mM, HEPES—10 mM, pH—7.2, 285 mOsmol) and extracellular (NaCl—140 mM, KCl—4 mM, CaCl2—2 mM, MgCl2—1 mM, HEPES—10 mM, D-Glucose—5 mM, pH—7.4, 298 mOsmol) solutions were automatically pipetted onto NPC-16 chip (medium resistance ˜2.5-2.6 MΩ). Suspension of GH4C1 cells expressing rat α7 nAChRs was introduced in 4 wells of a medium resistance chip and suction was applied to attract cells in the holes. The extracellular solution was subsequently exchanged to high calcium solution (NaCl—80 mM, KCl—3 mM, CaCl2—45 mM, HEPES—10 mM, pH—7.4, 298 mOsmol) followed by gigaohm seal formation and obtaining whole-cell configuration. The rest of protocol was carried out in the high-calcium recording solution. Holding potential was −70 mV throughout the protocol. A control response to 60 or 100 μM of ACh was obtained first. Next, a cell was pre-incubated with compound of interest at 3 μM for ˜30 s after which the compound was co-applied with acetylcholine.
Amplitude of the responses was measured in HEKA Patchmaster software (HEKA Elektronik, Germany) and percentage of potentiation calculated. Recording was repeated […] a minimum of two replicates had been obtained per compound.
Compounds shown in Table 1 were evaluated by automated planar patch clamp on the Patchliner® as described in Example P2.1. […] The compounds are designated either as Type I or Type II modulators based on the electrophysiology trace. Type 1 predominately affects the peak current. Type II modulators affect the peak current and also delay the desensitization of the receptor.

T1 sequence (Q05941 23-502): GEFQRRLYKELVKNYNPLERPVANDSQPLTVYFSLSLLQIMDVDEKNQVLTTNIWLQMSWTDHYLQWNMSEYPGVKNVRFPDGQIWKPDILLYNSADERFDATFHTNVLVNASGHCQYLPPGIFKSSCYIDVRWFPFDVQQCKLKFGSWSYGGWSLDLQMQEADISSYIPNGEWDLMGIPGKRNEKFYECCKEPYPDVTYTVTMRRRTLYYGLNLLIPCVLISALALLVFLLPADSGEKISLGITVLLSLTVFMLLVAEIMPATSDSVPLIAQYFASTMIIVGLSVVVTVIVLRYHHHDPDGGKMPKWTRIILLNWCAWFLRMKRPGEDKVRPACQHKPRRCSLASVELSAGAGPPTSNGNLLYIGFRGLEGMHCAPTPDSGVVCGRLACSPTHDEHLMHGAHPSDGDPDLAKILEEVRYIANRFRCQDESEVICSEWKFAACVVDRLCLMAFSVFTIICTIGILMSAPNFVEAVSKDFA

Structure (SMILES)	Type I or Type II	activation at 3 µM [%]
CC1(C)C(c2ccc(S(N)(=O)=O)cc2)[C@H]1CNc1ccc(F)c(C(F)(F)F)c1 (mixture of isomers) [Example 33, ±trans 4-[3-({[4-fluoro-3-(trifluoromethyl)phenyl]amino}methyl)-2,2-dimethylcyclopropyl]benzenesulfonamide]	II	–
CC1(C)C(c2ccc(S(N)(=O)=O)cc2)[C@H]1CNc1ccc(F)cc1OC(F)F (mixture of isomers) [Example 34, ±trans 4-[3-({[2-(difluoromethoxy)-4-fluorophenyl]amino}methyl)-2,2-dimethylcyclopropyl]benzenesulfonamide]	II	–
CC(C)(C)c1cc(NC[C@@H]2C(c3ccc(S(N)(=O)=O)cc3)C2(C)C)no1 (mixture of isomers) [Example 35, ±trans 4-(3-{[(5-tert-butyl-1,2-oxazol-3-yl)amino]methyl)}2,2-dimethylcyclopropyl)benzenesulfonamide]	II	57
Cc1cc(F)ccc1NC[C@@H]1[C@@H](c2ccc(S(N)(=O)=O)cc2)C1(C)C (racemic) [Example 38, ±trans 4-[-3-{[(4-fluoro-2-methylphenyl)amino]methyl}-2,2-dimethylcyclopropyl]benzenesulfonamide]	II	–
COc1ccc(Cl)cc1NC[C@@H]1[C@@H](c2ccc(NS(C)(=O)=O)cc2)C1(C)C (racemic) [Example 46, ±trans N-{4-[3-{[(5-chloro-2-methoxyphenyl)amino]methyl}-2,2-dimethylcyclopropyl]phenyl}methanesulfonamide]	I	783
COc1ccc(Cl)cc1NC[C@@H]1[C@@H](c2ccc(NS(N)(=O)=O)cc2)C1(C)C (racemic) [Example 59, ±trans N-[4-(3-{[(5-chloro-2-methoxyphenyl)amino]methyl}-2,2-dimethylcyclopropyl)phenyl]sulfuric diamide]	I	–
CC1(C)[C@H](CNC2CCCCC2(F)F)[C@H]1c1ccc(S(N)(=O)=O)cc1 (relative stereo) [Example 62, trans 4-(3-{[(2,2-difluorocyclohexyl)amino]methyl}-2,2-dimethylcyclopropyl)benzenesulfonamide]	II	38
COc1ccc(Cl)cc1NC[C@@H]1[C@@H](c2ccc(NS(C)(=O)=O)cc2)C1(C)C (single isomer, unassigned; enantiomer a) [Example 47]	I	867
Cc1cc(F)ccc1NC[C@@H]1[C@@H](c2ccc(S(N)(=O)=O)cc2)C1(C)C (single isomer, unassigned; enantiomer a) [Example 57, Enantiomer A of trans 4-[3-{[(4-fluoro-2-methylphenyl)amino]methyl}-2,2-dimethylcyclopropyl]benzenesulfonamide]	I	473
Cc1cc(F)ccc1NC[C@H]1[C@H](c2ccc(S(N)(=O)=O)cc2)C1(C)C (single isomer, unassigned; enantiomer b) [Example 58, Enantiomer B of trans 4-[3-{[(4-fluoro-2-methylphenyl)amino]methyl}-2,2-dimethylcyclopropyl]benzenesulfonamide]	II	–
NS(=O)(=O)c1ccc([C@@H]2C[C@H]2CNc2cc(F)ccc2OC(F)(F)F)cc1 (stereo in doubt) [Example 53, 4-[(1R,2R)-2-({[5-fluoro-2-(trifluoromethoxy)phenyl]amino}methyl)cyclopropyl]benzenesulfonamide]	II	–
COc1ccc(Cl)cc1NC[C@H]1C[C@@H]1c1ccc(S(N)(=O)=O)cc1 [Example 1, ±trans 4-(2-{[(5-chloro-2-methoxyphenyl)amino]methyl}cyclopropyl)benzenesulfonamide]	II	–
NS(=O)(=O)c1ccc([C@H]2C[C@@H]2CNc2ccc(F)c(F)c2)cc1 [Example 2, ±trans 4-(2-{[(3,4-difluorophenyl)amino]methyl}cyclopropyl)benzenesulfonamide]	II	–
COc1ccc(Cl)cc1NC[C@@H]1[C@@H](c2ccc(S(N)(=O)=O)cc2)C1(C)C [Example 4, ±trans 4-(3-{[(5-chloro-2-methoxyphenyl)amino]methyl}-2,2-dimethylcyclopropyl)benzenesulfonamide]	II	–
CC1(C)[C@H](CNc2ccccc2)[C@H]1c1ccc(S(N)(=O)=O)cc1 [Example 5, ±trans 4-{2,2-dimethyl-3-[(phenylamino)methyl]cyclopropyl}benzenesulfonamide]	II	–
CN(C[C@@H]1[C@@H](c2ccc(S(N)(=O)=O)cc2)C1(C)C)c1ccccc1 [Example 6, ±trans 4-(2,2-dimethyl-{[methyl(phenyl)amino]methyl}cyclopropyl)benzenesulfonamide]	I	506
COc1ccc(Cl)cc1N(C)C[C@@H]1[C@@H](c2ccc(S(N)(=O)=O)cc2)C1(C)C [Example 7, ±trans 4-(3-{[(5-chloro-2-methoxyphenyl)(methyl)amino]methyl}-2,2-dimethylcyclopropyl)benzenesulfonamide]	I	134
COc1ccc(Cl)cc1NC[C@@H]1[C@@H](c2ccc(S(N)(=O)=O)cc2)C12CCCC2 [Example 8, ±trans 4-(2-{[(5-chloro-2-methoxyphenyl)amino]methyl}spiro[2.4]hept-1-yl)benzenesulfonamide]	II	–
CC1(C)[C@H](CNc2cncc(F)c2)[C@H]1c1ccc(S(N)(=O)=O)cc1 [Example 10, ±trans 4-[3-{[(5-fluoropyridin-3-yl)amino]methyl}-2,2-dimethylcyclopropyl]benzenesulfonamide]	II	–
CC1(C)[C@H](CNc2ccnc(C(F)(F)F)c2)[C@H]1c1ccc(S(N)(=O)=O)cc1 [Example 11, ±trans 4-[2,2-dimethyl-3-({[2-(trifluoromethyl)pyridin-4-yl]amino}methyl)cyclopropyl]benzenesulfonamide]	II	15
NS(=O)(=O)c1ccc([C@H]2C[C@@H]2CNc2ccc(C(F)(F)F)cn2)cc1 [Example 12, ±trans 4-[2-({[5-(trifluoromethyl)pyridin-2-yl]amino}methyl)cyclopropyl]benzenesulfonamide]	I	401
CC1(C)[C@H](CNc2ccc(F)c(F)c2)[C@H]1c1ccc(S(N)(=O)=O)cc1 [Example 14, ±trans 4-[3-{[(3,4-difluorophenyl)amino]methyl}-2,2-dimethylcyclopropyl]benzenesulfonamide]	II	–
CC1(C)[C@H](CNc2ccc(F)cc2C(F)(F)F)[C@H]1c1ccc(S(N)(=O)=O)cc1 [Example 15, 4-[(1R,3R)-3-({[4-fluoro-2-(trifluoromethyl)phenyl]amino}methyl)-2,2-dimethylcyclopropyl]benzenesulfonamide]	I	413
CC1(C)[C@H](CNc2cc(F)ccc2OCC(F)(F)F)[C@H]1c1ccc(S(N)(=O)=O)cc1 [Example 16, 4-[(1R,3R)-3-({[5-fluoro-2-(2,2,2-trifluoroethoxy)phenyl]amino}methyl)-2,2-dimethylcyclopropyl]benzenesulfonamide]	I	236
NS(=O)(=O)c1ccc([C@@H]2C[C@H]2CNc2ccc(F)cc2)cc1 [Example 18, 4-[(1R,2R)-2-{[(4-fluorophenyl)amino]methyl}cyclopropyl]benzenesulfonamide]	I	–
NS(=O)(=O)c1ccc([C@@H]2C[C@H]2CNc2ccc(C(F)(F)F)cn2)cc1 [Example 19, 4-[(1R,2R)-2-({[5-(trifluoromethyl)pyridin-2-yl]amino}methyl)cyclopropyl]benzenesulfonamide]	I	762
COc1ccccc1NC[C@@H]1[C@@H](c2ccc(S(N)(=O)=O)cc2)C1(C)C [Example 25, ±trans 4-[3-{[(2-methoxyphenyl)amino]methyl}-2,2-dimethylcyclopropyl]benzenesulfonamide]	II	–
